# Experimental data from ChEMBL document CHEMBL1201862, “PubChem BioAssay data set” (2004).
#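 Cultured in 96-well plates, cells were exposed to test compound for 48 hours across five concentrations. Abbreviation: GI50, concentration required for 50% inhibition of growth.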 The source made the active and inactive calls. Rule as the data show it: active = GI50 up to about 1.1 µM and inactive = higher.
# Columns and labels:
# Assay in all cases: growth of human tumour cells (NCI), 48 h
# M14 = tested on: M14
# HCC 2998 = tested on: HCC 2998
# IGROV-1 = tested on: IGROV-1
# NCI-H522 = tested on: NCI-H522
# SNB-19 = tested on: SNB-19
# DU-145 = tested on: DU-145
# UACC-62 = tested on: UACC-62
# Hs-578T = tested on: Hs-578T
# MDA-MB-435 = tested on: MDA-MB-435
# EKVX = tested on: EKVX
# HL-60 = tested on: HL-60
# RPMI-8226 = tested on: RPMI-8226
# KM12 = tested on: KM12
# HT-29 = tested on: HT-29
# MCF7 = tested on: MCF7
# OVCAR-8 = tested on: OVCAR-8
# NCI-H460 = tested on: NCI-H460
# OVCAR-5 = tested on: OVCAR-5
# HCT-15 = tested on: HCT-15
# T47D = tested on: T47D
# HOP-62 = tested on: HOP-62
# SF-268 = tested on: SF-268
# UACC-257 = tested on: UACC-257
# NCI-H226 = tested on: NCI-H226
# SK-OV-3 = tested on: SK-OV-3
# CAKI-1 = tested on: CAKI-1
# SNB-75 = tested on: SNB-75
# SK-MEL-28 = tested on: SK-MEL-28
# 786-0 = tested on: 786-0
# SF-295 = tested on: SF-295
# MDA-N = tested on: MDA-N
# LOX IMVI = tested on: LOX IMVI
# PC-3 = tested on: PC-3
# ACHN = tested on: ACHN
# TK-10 = tested on: TK-10
# OVCAR-4 = tested on: OVCAR-4
# MDA-MB-231 = tested on: MDA-MB-231
# A498 = tested on: A498
# SK-MEL-2 = tested on: SK-MEL-2
# SF-539 = tested on: SF-539
# CCRF-CEM = tested on: CCRF-CEM
# MOLT-4 = tested on: MOLT-4
# HCT-116 = tested on: HCT-116
# U-251 = tested on: U-251
# A549 = tested on: A549
# Malme-3M = tested on: Malme-3M
# K562 = tested on: K562
# SR = tested on: SR
# COLO 205 = tested on: COLO 205
# NCI-H23 = tested on: NCI-H23
# SW-620 = tested on: SW-620
# OVCAR-3 = tested on: OVCAR-3
# BT-549 = tested on: BT-549
# SN12C = tested on: SN12C
# SK-MEL-5 = tested on: SK-MEL-5
# RXF 393 = tested on: RXF 393
# HOP-92 = tested on: HOP-92
# UO-31 = tested on: UO-31
# NCI/ADR-RES = tested on: NCI/ADR-RES
structure (smiles),measurement,setting,value
COC(=O)C1=C(C(=O)NNc2ccccc2)N(c2cccnc2Cl)C(c2ccccc2)=CC1c1ccccc1 (centres undefined),GI50,M14,33.3 µM (inactive)
same,GI50,HCC 2998,60.3 µM (inactive)
same,GI50,IGROV-1,> 100 µM (inactive)
same,GI50,NCI-H522,> 100 µM (inactive)
same,GI50,SNB-19,> 100 µM (inactive)
same,GI50,DU-145,80.9 µM (inactive)
same,GI50,UACC-62,57.7 µM (inactive)
same,GI50,Hs-578T,> 100 µM (inactive)
same,GI50,MDA-MB-435,29.5 µM (inactive)
same,GI50,EKVX,> 100 µM (inactive)
same,GI50,HL-60,37.2 µM (inactive)
same,GI50,RPMI-8226,14.1 µM (inactive)
same,GI50,KM12,29.6 µM (inactive)
same,GI50,HT-29,58.6 µM (inactive)
same,GI50,MCF7,34.9 µM (inactive)
same,GI50,OVCAR-8,> 100 µM (inactive)
same,GI50,NCI-H460,65.2 µM (inactive)
same,GI50,OVCAR-5,> 100 µM (inactive)
same,GI50,HCT-15,39.3 µM
same,GI50,T47D,26.1 µM (inactive)
same,GI50,HOP-62,> 100 µM (inactive)
same,GI50,SF-268,88.1 µM (inactive)
same,GI50,UACC-257,41.4 µM (inactive)
same,GI50,NCI-H226,> 100 µM (inactive)
same,GI50,SK-OV-3,> 100 µM (inactive)
same,GI50,CAKI-1,56.5 µM (inactive)
same,GI50,SNB-75,> 100 µM (inactive)
same,GI50,SK-MEL-28,48.2 µM (inactive)
same,GI50,786-0,86.3 µM (inactive)
same,GI50,SF-295,19.6 µM (inactive)
same,GI50,MDA-N,20.5 µM (inactive)
same,GI50,LOX IMVI,30.5 µM (inactive)
same,GI50,PC-3,31.3 µM (inactive)
same,GI50,ACHN,76.7 µM (inactive)
same,GI50,TK-10,54.6 µM (inactive)
same,GI50,OVCAR-4,> 100 µM (inactive)
same,GI50,MDA-MB-231,56.1 µM (inactive)
same,GI50,A498,> 100 µM (inactive)
same,GI50,SK-MEL-2,22.4 µM (inactive)
same,GI50,SF-539,72.4 µM (inactive)
same,GI50,CCRF-CEM,27.7 µM (inactive)
same,GI50,MOLT-4,15.2 µM (inactive)
same,GI50,HCT-116,23.7 µM (inactive)
same,GI50,U-251,47.1 µM (inactive)
same,GI50,A549,40.9 µM (inactive)
same,GI50,Malme-3M,27.8 µM (inactive)
same,GI50,K562,20 µM (inactive)
same,GI50,SR,24 µM (inactive)
same,GI50,COLO 205,66.7 µM (inactive)
same,GI50,NCI-H23,73.8 µM (inactive)
same,GI50,SW-620,31.6 µM (inactive)
same,GI50,OVCAR-3,31.7 µM (inactive)
same,GI50,BT-549,56.8 µM (inactive)
same,GI50,SN12C,> 100 µM (inactive)
same,GI50,SK-MEL-5,34 µM (inactive)
C=CCc1ccccc1CC1(OCC)OC(=O)c2ccccc21 (centres undefined),GI50,M14,66.1 µM (inactive)
same,GI50,HCC 2998,> 100 µM (inactive)
same,GI50,IGROV-1,> 100 µM (inactive)
same,GI50,NCI-H522,67.8 µM (inactive)
same,GI50,SNB-19,> 100 µM (inactive)
same,GI50,DU-145,> 100 µM (inactive)
same,GI50,UACC-62,> 100 µM (inactive)
same,GI50,Hs-578T,> 100 µM (inactive)
same,GI50,MDA-MB-435,28.8 µM (inactive)
same,GI50,EKVX,> 100 µM (inactive)
same,GI50,RPMI-8226,17 µM (inactive)
same,GI50,HT-29,45.2 µM (inactive)
same,GI50,RXF 393,> 100 µM (inactive)
same,GI50,MCF7,> 100 µM (inactive)
same,GI50,OVCAR-8,> 100 µM (inactive)
same,GI50,NCI-H460,77.6 µM (inactive)
same,GI50,OVCAR-5,> 100 µM (inactive)
same,GI50,HCT-15,42.3 µM
same,GI50,T47D,76.9 µM (inactive)
same,GI50,HOP-62,94 µM (inactive)
same,GI50,SF-268,> 100 µM (inactive)
same,GI50,UACC-257,60.7 µM (inactive)
same,GI50,NCI-H226,> 100 µM (inactive)
same,GI50,SK-OV-3,> 100 µM (inactive)
same,GI50,CAKI-1,> 100 µM (inactive)
same,GI50,SNB-75,0.0259 µM (active)
same,GI50,SK-MEL-28,> 100 µM (inactive)
same,GI50,786-0,> 100 µM (inactive)
same,GI50,SF-295,> 100 µM (inactive)
same,GI50,MDA-N,31.3 µM (inactive)
same,GI50,PC-3,83 µM (inactive)
same,GI50,ACHN,> 100 µM (inactive)
same,GI50,TK-10,> 100 µM (inactive)
same,GI50,OVCAR-4,> 100 µM (inactive)
same,GI50,MDA-MB-231,72.8 µM (inactive)
same,GI50,A498,> 100 µM (inactive)
same,GI50,SK-MEL-2,89.3 µM (inactive)
same,GI50,SF-539,> 100 µM (inactive)
same,GI50,MOLT-4,48.8 µM (inactive)
same,GI50,HCT-116,41.2 µM (inactive)
same,GI50,U-251,> 100 µM (inactive)
same,GI50,A549,> 100 µM (inactive)
same,GI50,K562,51.8 µM (inactive)
same,GI50,COLO 205,67.1 µM (inactive)
same,GI50,HOP-92,33.8 µM (inactive)
same,GI50,NCI-H23,56.5 µM (inactive)
same,GI50,SW-620,> 100 µM (inactive)
same,GI50,OVCAR-3,41.2 µM (inactive)
same,GI50,BT-549,96.8 µM (inactive)
same,GI50,UO-31,> 100 µM (inactive)
same,GI50,SN12C,87.7 µM (inactive)
same,GI50,SK-MEL-5,39.9 µM (inactive)
C[n+]1ccc(/C2=C3\C=CC(=N3)/C(c3cc[n+](C)cc3)=c3/cc/c([nH]3)=C(\c3cc[n+](C)cc3)C3=N/C(=C(/c4cc[n+](C)cc4)C4C=CC2N4)C=C3)cc1,GI50,M14,> 100 µM (inactive)
same,GI50,HCC 2998,84.7 µM (inactive)
same,GI50,IGROV-1,71.4 µM (inactive)
same,GI50,NCI-H522,> 100 µM (inactive)
same,GI50,SNB-19,> 100 µM (inactive)
same,GI50,DU-145,> 100 µM (inactive)
same,GI50,UACC-62,> 100 µM (inactive)
same,GI50,Hs-578T,> 80 µM (inactive)
same,GI50,MDA-MB-435,> 61.7 µM (inactive)
same,GI50,EKVX,> 100 µM (inactive)
same,GI50,HL-60,> 100 µM (inactive)
same,GI50,RPMI-8226,> 48.2 µM (inactive)
same,GI50,KM12,35.9 µM (inactive)
same,GI50,HT-29,51.9 µM (inactive)
same,GI50,RXF 393,> 91.4 µM (inactive)
same,GI50,MCF7,> 100 µM (inactive)
same,GI50,OVCAR-8,> 100 µM (inactive)
same,GI50,NCI-H460,32.9 µM (inactive)
same,GI50,OVCAR-5,> 100 µM (inactive)
same,GI50,HCT-15,> 100 µM
same,GI50,T47D,> 100 µM (inactive)
same,GI50,HOP-62,> 100 µM (inactive)
same,GI50,SF-268,> 100 µM (inactive)
same,GI50,UACC-257,> 48.5 µM (inactive)
same,GI50,NCI-H226,> 75.7 µM (inactive)
same,GI50,SK-OV-3,> 85.3 µM (inactive)
same,GI50,CAKI-1,> 100 µM (inactive)
same,GI50,SNB-75,51.1 µM (inactive)
same,GI50,SK-MEL-28,> 100 µM (inactive)
same,GI50,786-0,> 100 µM (inactive)
same,GI50,SF-295,> 100 µM (inactive)
same,GI50,MDA-N,> 100 µM (inactive)
same,GI50,LOX IMVI,> 100 µM (inactive)
same,GI50,ACHN,> 100 µM (inactive)
same,GI50,TK-10,> 100 µM (inactive)
same,GI50,OVCAR-4,> 70 µM (inactive)
same,GI50,MDA-MB-231,> 100 µM (inactive)
same,GI50,A498,> 100 µM (inactive)
same,GI50,SF-539,> 93.5 µM (inactive)
same,GI50,CCRF-CEM,> 75.7 µM (inactive)
same,GI50,MOLT-4,95.3 µM (inactive)
same,GI50,HCT-116,> 81.1 µM (inactive)
same,GI50,U-251,3.93 µM (inactive)
same,GI50,A549,80.2 µM (inactive)
same,GI50,Malme-3M,> 100 µM (inactive)
same,GI50,K562,> 90.4 µM (inactive)
same,GI50,SR,7.73 µM (inactive)
same,GI50,COLO 205,> 100 µM (inactive)
same,GI50,HOP-92,> 100 µM (inactive)
same,GI50,NCI-H23,> 100 µM (inactive)
same,GI50,NCI/ADR-RES,> 100 µM (inactive)
same,GI50,SW-620,> 100 µM (inactive)
same,GI50,OVCAR-3,> 95.5 µM (inactive)
same,GI50,BT-549,> 100 µM (inactive)
same,GI50,UO-31,> 100 µM (inactive)
same,GI50,SN12C,> 100 µM (inactive)
same,GI50,SK-MEL-5,43 µM (inactive)
